pKd: −log10 of the molar value.

The assay has as its target DYRK1A (Homo sapiens, UniProt Q13627). In words: Affinity testing of compounds with DYRK1A (KD). In kind it is binding. The note with it: DYRK1A affinity key classes.
`Fc1c(-c2ccncc2)ccc2ncn(-c3ccc4c(c3)OCO4)c12` [Compound 1, 1-(benzo[d][1,3]dioxol-5-yl)-7-fluoro-6-(pyridin-4-yl)-1H-benzo[d]imidazole] had a pKd of 7.00 to 9.30.
Next, `Fc1cc2ncn(-c3ccc4c(c3)OCO4)c2cc1-c1ccncc1` [Compound 2, 1-(benzo[d][1,3]dioxol-5-yl)-5-fluoro-6-(pyridin-4-yl)-1H-benzo[d]imidazole]: 7.00 to 9.30.
Next, `Fc1cc(-c2ccncc2)cc2c1ncn2-c1ccc2c(c1)OCO2` [Compound 3, 1-(benzo[d][1,3]dioxol-5-yl)-4-fluoro-6-(pyridin-4-yl)-1H-benzo[d]imidazole]: 7.00 to 9.30.
Turning to `c1cc(-c2ccc3ncn(-c4ccc5c(c4)OCO5)c3n2)ccn1` [Compound 4, 3-(benzo[d][1,3]dioxol-5-yl)-5-(pyridin-4-yl)-3H-imidazo[4,5-b]pyridine], the pKd was 7.00 to 9.30.
Next, `COC(=O)c1ccc(-n2cnc3ccc(-c4ccncc4)c(F)c32)cc1` [Compound 5, methyl 4-(7-fluoro-6-(pyridin-4-yl)-1H-benzo[d]imidazol-1-yl)benzoate]: 7.00 to 9.30; `O=C(O)c1ccc(-n2cnc3ccc(-c4ccncc4)c(F)c32)cc1` [Compound 6, 4-(7-fluoro-6-(pyridin-4-yl)-1H-benzo[d]imidazol-1-yl)benzoic acid]: 6.30 to 7.00; `COC(=O)c1ccc(-n2cnc3cc(F)c(-c4ccncc4)cc32)cc1` [Compound 7, methyl 4-(5-fluoro-6-(pyridin-4-yl)-1H-benzo[d]imidazol-1-yl)benzoate]: 6.30 to 7.00.
Next, `O=C(O)c1ccc(-n2cnc3cc(F)c(-c4ccncc4)cc32)cc1` [Compound 8, 4-(5-fluoro-6-(pyridin-4-yl)-1H-benzo[d]imidazol-1-yl)benzoic acid]: 6.30 to 7.00; `COC(=O)c1ccc(-n2cnc3ccc(-c4ccncc4)nc32)cc1` [Compound 9, methyl 4-(5-(pyridin-4-yl)-3H-imidazo[4,5-b]pyridin-3-yl)benzoate]: 7.00 to 9.30.
`O=C(O)c1ccc(-n2cnc3ccc(-c4ccncc4)nc32)cc1` [Compound 10, 4-(5-(pyridin-4-yl)-3H-imidazo[4,5-b]pyridin-3-yl)benzoic acid] showed a pKd of 7.00 to 9.30.
Molecule `N#Cc1ccnc(-n2cnc3ccc(-c4ccncc4)c(F)c32)c1` [Compound 11, 2-(7-fluoro-6-(pyridin-4-yl)-1H-benzo[d]imidazol-1-yl)isonicotinonitrile] gave a pKd of 6.30 to 7.00.
`NC(=O)c1ccnc(-n2cnc3ccc(-c4ccncc4)c(F)c32)c1` [Compound 12, 2-(7-fluoro-6-(pyridin-4-yl)-1H-benzo[d]imidazol-1-yl)isonicotinamide] showed a pKd of 6.30 to 7.00.
Regarding `O=C(O)c1ccnc(-n2cnc3ccc(-c4ccncc4)c(F)c32)c1` [Compound 13, 2-(7-fluoro-6-(pyridin-4-yl)-1H-benzo[d]imidazol-1-yl)isonicotinic acid], the pKd is 5.00 to 6.30.
Next, `N#Cc1ccc(-n2cnc3ccc(-c4ccncc4)c(F)c32)nc1` [Compound 14, 6-(7-fluoro-6-(pyridin-4-yl)-1H-benzo[d]imidazol-1-yl)nicotinonitrile]: 7.00 to 9.30; `NC(=O)c1ccc(-n2cnc3ccc(-c4ccncc4)c(F)c32)nc1` [Compound 15, 6-(7-fluoro-6-(pyridin-4-yl)-1H-benzo[d]imidazol-1-yl)nicotinamide]: 7.00 to 9.30.
Next, `COC(=O)c1ccc(-n2cnc3c(F)cc(-c4ccncc4)cc32)cc1` [Compound 16, methyl 4-(4-fluoro-6-(pyridin-4-yl)-1H-benzo[d]imidazol-1-yl)benzoate]: 7.00 to 9.30; `O=C(O)c1ccc(-n2cnc3c(F)cc(-c4ccncc4)cc32)cc1` [Compound 17, 4-(4-fluoro-6-(pyridin-4-yl)-1H-benzo[d]imidazol-1-yl)benzoic acid]: 6.30 to 7.00.
In turn, `Cc1nc2ccc(-c3ccncc3)c(F)c2n1-c1ccc2c(c1)OCO2` [Compound 19, 1-(benzo[d][1,3]dioxol-5-yl)-7-fluoro-2-methyl-6-(pyridin-4-yl)-1H-benzo[d]imidazole] showed a pKd of 7.00 to 9.30.
On to `Cc1nc2ccc(-c3cn[nH]c3)c(F)c2n1-c1ccc2c(c1)OCO2` [Compound 20, 1-(benzo[d][1,3]dioxol-5-yl)-7-fluoro-2-methyl-6-(1H-pyrazol-4-yl)-1H-benzo[d]imidazole], for which the pKd is 7.00 to 9.30.
Next, `Fc1c(-c2ccncc2)ccc2nc(C3CC3)n(-c3ccc4c(c3)OCO4)c12` [Compound 21, 1-(benzo[d][1,3]dioxol-5-yl)-2-cyclopropyl-7-fluoro-6-(pyridin-4-yl)-1H-benzo[d]imidazole]: 5.00 to 6.30; `c1cc(-c2ccc3ncc(-c4ccc5c(c4)OCO5)n3n2)ccn1` [Compound 23, 3-(benzo[d][1,3]dioxol-5-yl)-6-(pyridin-4-yl)imidazo[1,2-b]pyridazine]: 7.00 to 9.30; `Nc1cc(-c2ccc3nccn3n2)ccn1` [Compound 24, 4-(imidazo[1,2-b]pyridazin-6-yl)pyridin-2-amine]: 7.00 to 9.30.
The same measure for `Cc1cn2nc(-c3ccnc(N)c3)ccc2n1` [Compound 25, 4-(2-methylimidazo[1,2-b]pyridazin-6-yl)pyridin-2-amine]: 7.00 to 9.30; for `c1cn2nc(-c3cn[nH]c3)ccc2n1` [Compound 26, 6-(1H-pyrazol-4-yl)imidazo[1,2-b]pyridazine]: 6.30 to 7.00; for `c1n[nH]cc1-c1ccc2ncc(-c3ccc4c(c3)OCO4)n2n1` [Compound 27, 3-(benzo[d][1,3]dioxol-5-yl)-6-(1H-pyrazol-4-yl)imidazo[1,2-b]pyridazine]: 7.00 to 9.30.
Turning to `Cc1nc2ccc(-c3ccncc3)nc2n1-c1ccc(CN2CCOCC2)cc1` [Compound 28, 4-(4-(2-methyl-5-(pyridin-4-yl)-3H-imidazo[4,5-b]pyridin-3-yl)benzyl)morpholine], the pKd is 7.00 to 9.30.
The same measure for `Cc1nc2ccc(-c3ccncc3)nc2n1-c1ccc2c(c1)OCO2` [Compound 29, 3-(benzo[d][1,3]dioxol-5-yl)-2-methyl-5-(pyridin-4-yl)-3H-imidazo[4,5-b]pyridine]: 7.00 to 9.30; for `Cc1nc2ccc(-c3cn[nH]c3)nc2n1-c1ccc2c(c1)OCO2` [Compound 30, 3-(benzo[d][1,3]dioxol-5-yl)-2-methyl-5-(1H-pyrazol-4-yl)-3H-imidazo[4,5-b]pyridine]: 7.00 to 9.30.
For the molecule `Cc1nc2ccc(-c3cnn(C)c3)nc2n1-c1ccc2c(c1)OCO2` [Compound 31, 3-(benzo[d][1,3]dioxol-5-yl)-2-methyl-5-(1-methyl-1H-pyrazol-4-yl)-3H-imidazo[4,5-b]pyridine], the pKd was 6.30 to 7.00.
For the molecule `Cc1nc2ccc(-c3ccncc3)nc2n1-c1ccc2[nH]cnc2c1` [Compound 32, 3-(1H-benzo[d]imidazol-5-yl)-2-methyl-5-(pyridin-4-yl)-3H-imidazo[4,5-b]pyridine], the pKd was 7.00 to 9.30.
The molecule `Cc1nc2ccc(-c3cn[nH]c3)nc2n1-c1ccc2[nH]cnc2c1` [Compound 33, 3-(1H-benzo[d]imidazol-5-yl)-2-methyl-5-(1H-pyrazol-4-yl)-3H-imidazo[4,5-b]pyridine] showed a pKd of 7.00 to 9.30.
The same measure for `Cc1nc2ccc(-c3ccncc3)nc2n1-c1ccc2[nH]c(C(F)(F)F)nc2c1` [Compound 34, 2-methyl-5-(pyridin-4-yl)-3-(2-(trifluoromethyl)-1H-benzo[d]imidazol-5-yl)-3H-imidazo[4,5-b]pyridine]: 7.00 to 9.30; for `Cc1nc2cc(-n3c(C)nc4ccc(-c5ccncc5)nc43)ccc2o1` [Compound 35, 2-methyl-5-(2-methyl-5-(pyridin-4-yl)-3H-imidazo[4,5-b]pyridin-3-yl)benzo[d]oxazole]: 6.30 to 7.00; for `Cc1nc2cc(-n3c(C)nc4ccc(-c5cn[nH]c5)nc43)ccc2o1` [Compound 36, 2-methyl-5-(2-methyl-5-(1H-pyrazol-4-yl)-3H-imidazo[4,5-b]pyridin-3-yl)benzo oxazole]: 6.30 to 7.00.
Next, `Cc1nc2ccc(-c3ccncc3)nc2n1-c1ccc2c(c1)OCC(=O)N2` [Compound 37, 7-(2-methyl-5-(pyridin-4-yl)-3H-imidazo[4,5-b]pyridin-3-yl)-2H-benzo[b][1,4]oxazin-3(4H)-one]: 7.00 to 9.30; `CC(=O)N1C[C@@H]2[C@H](C1)[C@H]2n1c(C)nc2ccc(-c3ccncc3)nc21` [Compound 38, 1-((1R,5S,6s)-6-(2-methyl-5-(pyridin-4-yl)-3H-imidazo[4,5-b]pyridin-3-yl)-3-azabicyclo[3.1.0]hexan-3-yl)ethan-1-one]: 7.00 to 9.30; `CC(=O)N1CC[C@H](n2c(C)nc3ccc(-c4ccncc4)nc32)C1` [Compound 39, (S)-1-(3-(2-methyl-5-(pyridin-4-yl)-3H-imidazo[4,5-b]pyridin-3-yl)pyrrolidin-1-yl)ethan-1-one]: 6.30 to 7.00.
Next, `CCOC(=O)c1ccc(-n2c(C)nc3ccc(-c4ccncc4)nc32)cc1` [Compound 40, ethyl 4-(2-methyl-5-(pyridin-4-yl)-3H-imidazo[4,5-b]pyridin-3-yl)benzoate]: 7.00 to 9.30.
Take `Cc1nc2ccc(-c3ccncc3)nc2n1-c1ccc(=O)n(C)c1` [Compound 41, 1-methyl-5-(2-methyl-5-(pyridin-4-yl)-3H-imidazo[4,5-b]pyridin-3-yl)pyridin-2(1H)-one]: the pKd was 6.30 to 7.00.
The same measure for `Cc1nc2ccc(-c3ccncc3)nc2n1-c1ccc(C#N)cn1` [Compound 42, 6-(2-methyl-5-(pyridin-4-yl)-3H-imidazo[4,5-b]pyridin-3-yl)nicotinonitrile]: 7.00 to 9.30; for `COc1ccc(-n2c(C)nc3ccc(-c4ccncc4)nc32)cc1` [Compound 43, 3-(4-methoxyphenyl)-2-methyl-5-(pyridin-4-yl)-3H-imidazo[4,5-b]pyridine]: 7.00 to 9.30.
Regarding `Cc1nc2ccc(-c3ccnc(N)c3)nc2n1-c1ccc(CN2CCOCC2)cc1` [Compound 44, 4-(2-methyl-3-(4-(morpholinomethyl)phenyl)-3H-imidazo[4,5-b]pyridin-5-yl)pyridin-2-amine], the pKd was 7.00 to 9.30.

In general, pKd refers to the Kd on a negative log10 scale, so that one unit is a factor of ten.

The values above are taken from US12054483B2, “Small molecule inhibitors of DYRK/CLK and uses thereof” (Arizona Board of Regents on Behalf of the University of …, priority 2018, dated 2024).
